The record followed here is patent publication US20230263918A1, “ANTIVIRAL METHODS AND COMPOSITIONS” (priority 2020, published 2023).

One series deals with E. coli. Description: Light-activated killing of bacteria (E. coli). The class given is cell-based. The settings on record: for light-activated killing of bacteria: E. coli; for anti-bacterial activity using cool white light: LuzChem "cool white" light. The source says: No killing of bacteria in the dark has yet been observed.
Compound E was applied to a wet wipe surface and also to the surface of a filter for filtration of air or water.

The next series deals with mammal models. The settings on record: in vivo.

For `Cn1cc[n+](CCCCc2ccc(C#Cc3ccc(C#Cc4ccc(OCCC[n+]5ccn(C)c5)cc4)s3)cc2)c1` [Compound E], in the series with E. coli, the “light-activated killing of bacteria” value is listed as “excellent” and the “anti-bacterial activity using cool white light” value is on record as “excellent anti-bacterial activity”. Further, the “light-activated killing on surfaces” value in the series on E. coli (applied to wet wipe surface and filter surface for air or water) is “strong light-activated killing”. For the same molecule, the “killing of bacteria in the dark” value in the series with E. coli (dark) is on record as “No killing”. In addition, the “activity when surface immersed in E. Coli suspension” value with E. coli (wet wipe / filter surface immersed in suspension of E. Coli) is on record as “activity was retained”. For the same molecule, in the series with mammal models, the “toxicity against mammal models” value was “no toxicity”.
Regarding `Cn1cc[n+](CCCOc2ccc(C#Cc3ccc(C#Cc4ccc(OCCC[n+]5ccn(C)c5)cc4)cc3)cc2)c1` [Compound D], in the series on E. coli, the “light-activated killing of bacteria” value is on record as “excellent” and the “anti-bacterial activity using cool white light” value is listed as “excellent anti-bacterial activity”. Also, the “relative reactivity in bacterial killing” value in the series on E. coli (light-activated) is “more reactive than Compound E”.
